Laboratory results from ChEMBL document CHEMBL3507680, “University of Dundee, Gates Library screen for HepG2 cell viability”.

Assay: Human HepG2 cell viability assay in 384 well format
Assay type: toxicity, cell-based
Set-up: dose 125 nL, time 70.5 hour; cytotoxicity at 70.5 h: concentration not given beside the values
Settings: HepG2 cells, read-out: Inhibition

Row | Compound | cytotoxicity at 70.5 h [%]
1 | CC(C)CN(CC(O)c1ccc(F)cc1)C(=O)c1csnn1 (stereo not given) | 14.1
2 | c1csc(N2CCN(Cc3cc4n(n3)CCNC4)CC2)n1 | 1.93
3 | COCCc1noc(C2CCCN(c3ncnc4c3CCC4)C2)n1 (stereo not given) | -13.9
4 | CC1CCN(C)c2ccccc2N1C(=O)c1ccn(C)c(=O)c1 (stereo not given) | -6.59
5 | O[C@]1(c2ccccn2)CC[C@@H]2CN(Cc3cccc4ncccc34)C[C@@H]21 | 15.3
6 | Cc1ccc2c(c1)[C@@H](CC(=O)N(C)C)CCO2 | -2.63
7 | Cc1ccc(NCCCNc2nccc(-c3cn(C)nc3C)n2)nc1 | 13.9
8 | Cc1nnc(NC(=O)NCc2ccoc2)s1 | -2.74
9 | CN1CCN(S(=O)(=O)c2cccnc2)c2cnccc21 | -3.64
10 | Cc1c(C(=O)NC2(C#N)CCCC2)nnn1-c1ccccc1Cl | -9.11
11 | CCN1CCc2c(c(COC)nn2C)C1 | -10.5
12 | Cc1cc(C(C)NCCN2CCC(N(C)C)CC2)c(C)s1 (stereo not given) | 12.7
13 | O=C(NCc1cn2c(n1)SCC2)c1cn(CCN2CCCCC2)nn1 | 17.2
14 | CC(C)n1cnnc1Cn1c(=O)cnc2ccccc21 | -4.23
15 | Cc1ccc(NC(=O)N(CCO)CCO)c(OCc2ccccc2)c1 | 10.5
16 | O=C(CSc1ccccn1)N1CCC(OCc2cccnc2)CC1 | -18.6
17 | CS(=O)(=O)NCC1CCCN(C(=O)Nc2ccccc2F)C1 (stereo not given) | 1.05
18 | Cc1ccc(CSc2nc(N)cc(NCCS(=O)(=O)N(C)C)n2)cc1 | -2.68
19 | Cc1ocnc1C(=O)N(Cc1cccnc1)C[C@@H]1CCC(=O)N1 | -8.79
20 | COc1cc(NC(=O)c2ccc(Cl)cc2F)c(C(=O)N(C)C)cc1OC | -11.5
21 | O=C(O)C1(n2ccc(-c3ccco3)n2)CCN(Cc2ccsc2)CC1 | -1.95
22 | COCCC(=O)N1CCC2(COCc3c(C)nc(NCC4CC4)nc32)C1 (stereo not given) | -4.97
23 | Cn1nc(COCC2CC2)c2c1CCN(Cc1ccco1)C2 | -9.54

Row | Compound | cytotoxicity at 70.5 h [%]
24 | O=C1N[C@@H]2CCN(C(=O)c3ccccc3)[C@@H]2C(=O)N1Cc1ccccc1 | -5.37
25 | CN(Cc1ccco1)Cc1ccccc1CNC(=O)c1csnn1 | -1.62
26 | CN1CCC(c2ncc3c(n2)CCN(C(=O)CC2C=CCC2)C3)CC1 (stereo not given) | -7.45
27 | Cc1nc(N2CCCC2)nc2c1CCN(C(=O)C(C)C)CC2 | -15.8
28 | CCN(Cc1cccc(C(=O)Nc2c(C)cnn2C)c1)[C@H]1COC[C@@H]1O | -2.17
29 | C[S+]([O-])c1nncn1CC(=O)c1cccc(Cl)c1 (stereo not given) | -7.53
30 | Cc1ccc2c(ccn2CCC(=O)N2CCC(C(N)=O)CC2)c1 | -21.3
31 | O=C(NCCCN1CCOCC1)c1ccc(-n2ccc3ccccc32)s1 | -3.96
32 | NC(=O)c1cccc(CCNCc2cnc(-c3cccs3)s2)c1 | -12.1
33 | COc1ccccc1C(C)(C)NC(=O)c1ccc(F)c(NC(C)=O)c1 | -7.74
34 | Cc1csc2ncc(-c3ccnc(N4CCCN(C)CC4)n3)c(=O)n12 | -0.0913
35 | Cc1occc1C(=O)NCC(=O)N1CCC(COc2ccccc2)CC1 | -2.93
36 | COC(=O)c1cccc(S(=O)(=O)NCc2cccnc2N(C)C)c1 | -2.85
37 | Cc1nc(O)cc(CCNC(=O)CN2CCCCCC2)n1 | 1.28
38 | CCCN(Cc1nc2ccccc2[nH]1)Cc1ccccc1OC | -4
39 | Cc1cc(CN(C)C(=O)C2CCC(=O)N(CC3CCCCC3)C2)n[nH]1 (stereo not given) | -8.5
40 | CN1CCN(c2ncc(-c3cnccn3)c([C@H]3CCCO3)n2)CC1 | -8.8
41 | CCN(CC)C1CCN(C(=O)c2cc3cc(C)cc(C)c3nc2C)CC1 | -2.42
42 | CC(O)CCN(C)S(=O)(=O)Cc1ccc(Br)cc1 (stereo not given) | 23.3
43 | Cc1cc(=O)[nH]c(=O)n1COCCOCc1ccccc1 | 25.1
44 | CSCC[C@H](N)C(=O)NCc1cc2n(n1)CCCN(C(=O)C1CCC1)C2 | -4.43
45 | CCN(c1ccc(C(=O)N2CCCC(C)C2)cc1)S(=O)(=O)CC (stereo not given) | -4.35
